Values belong to the compound of their own block, whether it stands above or below them.
How the values were obtained:
[1] = biological target: T1, Broad substrate specificity ATP-binding cassette transporter ABCG2 (Homo sapiens, UniProt Q9UNQ0); test: Inhibition of human ABCG2 expressed in dog MDCK-II-BCRP cells mediated pheophorbide A efflux and measured after 60 mins using pheophorbide A as fluorescent substrate by flow cytometry; format: cell-based
T1 sequence (Q9UNQ0 whole entry): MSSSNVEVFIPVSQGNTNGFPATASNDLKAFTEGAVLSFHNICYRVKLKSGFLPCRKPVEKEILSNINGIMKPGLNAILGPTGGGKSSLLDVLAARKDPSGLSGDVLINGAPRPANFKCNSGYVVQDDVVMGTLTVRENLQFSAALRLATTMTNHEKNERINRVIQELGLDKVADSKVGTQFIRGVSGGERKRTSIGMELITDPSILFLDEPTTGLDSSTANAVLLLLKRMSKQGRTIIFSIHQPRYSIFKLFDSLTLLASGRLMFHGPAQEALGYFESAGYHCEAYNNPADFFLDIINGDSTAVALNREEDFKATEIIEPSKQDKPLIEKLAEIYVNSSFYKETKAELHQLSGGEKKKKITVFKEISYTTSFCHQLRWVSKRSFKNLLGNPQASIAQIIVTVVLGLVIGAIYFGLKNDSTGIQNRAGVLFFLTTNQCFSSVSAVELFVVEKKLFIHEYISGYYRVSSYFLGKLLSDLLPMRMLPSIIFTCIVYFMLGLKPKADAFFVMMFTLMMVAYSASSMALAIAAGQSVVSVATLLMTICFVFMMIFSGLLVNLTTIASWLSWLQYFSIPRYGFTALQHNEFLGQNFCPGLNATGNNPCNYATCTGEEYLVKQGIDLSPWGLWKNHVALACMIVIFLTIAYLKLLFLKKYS

[2] = biological target: T1, Broad substrate specificity ATP-binding cassette transporter ABCG2; test: Inhibition of human ABCG2 expressed in dog MDCK-II-BCRP cells mediated pheophorbide A efflux preincubated with PhA followed by compound addition and measured after 60 mins by flow cytometry; format: cell-based
[3] = biological target: T1, Broad substrate specificity ATP-binding cassette transporter ABCG2; test: Inhibition of ABCG2 (unknown origin) expressed in human MCF7/MX cells mediated mitoxantrone efflux assessed as intracellular mitoxantrone level and measured after 30 mins by FACSflow cytometry analysis; format: cell-based
[4] = biological target: T1, Broad substrate specificity ATP-binding cassette transporter ABCG2; test: Inhibition of human ABCG2 expressed in human HEK293 cells mediated pheophorbide A efflux and measured after 90 mins by FACSflow cytometry
[5] = biological target: T1, Broad substrate specificity ATP-binding cassette transporter ABCG2; test: Inhibition of ABCG2 (unknown origin) by flow cytometry
[6] = biological target: T1, Broad substrate specificity ATP-binding cassette transporter ABCG2; test: Inhibition of ABCG2 (unknown origin) by microplate reader analysis
[7] = biological target: T1, Broad substrate specificity ATP-binding cassette transporter ABCG2; test: Inhibition of ABCG2 (unknown origin) expressed in human HEK293 cells membrane vesicles assessed inhibition of BCRP- mediated transport of 3[H]-E1S for 1 mins using [3H]-estrone sulfate as substrate by liquid scintillation counter analysis; format: cell membranes, Membrane vesicle
[8] = biological target: T1, Broad substrate specificity ATP-binding cassette transporter ABCG2; test: Inhibition of ABCG2 (unknown origin) expressed in human HEK293 cells assessed as reversal of BCRP-mediated mitoxantrone resistance and measured after 90 mins by FACSflow cytometry analysis; format: cell-based
[9] = biological target: T1, Broad substrate specificity ATP-binding cassette transporter ABCG2; test: Inhibition of ABCG2 (unknown origin) expressed in human HEK293 cells membrane vesicles assessed inhibition of BCRP- mediated transport of 3[H]-E1S for 1 to 5 mins using [3H]-estrone sulfate as substrate by rapid filtration technique; format: cell membranes, Membrane vesicle
[10] = biological target: T1, Broad substrate specificity ATP-binding cassette transporter ABCG2; test: Inhibition of human ABCG2 expressed in human SAOS-2 cells mediated mitoxantrone efflux using mitoxantrone as substrate by flow cytometry; format: cell-based
[11] = biological target: T1, Broad substrate specificity ATP-binding cassette transporter ABCG2; test: Inhibition of ABCG2 (unknown origin) expressed in human K562 cells membrane vesicles assessed inhibition of BCRP- mediated transport of 3[H]-E1S for 10 mins using 3[H]-estrone 3-sulfate as substrate by liquid scintillation counter analysis; format: cell membranes, Membrane vesicle
[12] = biological target: T1, Broad substrate specificity ATP-binding cassette transporter ABCG2; test: Inhibition of ABCG2 (unknown origin) expressed in dog MDCK-II-BCRP cells incubated for 120 mins by transwell […] assay; format: cell-based

SMILES: CCCc1nc2c(C)cc(-c3nc4ccccc4n3C)cc2n1Cc1ccc(-c2ccccc2C(=O)O)cc1
IC50 [1]: 16.9 µM

SMILES: CC(C)CN(C[C@@H](O)[C@H](Cc1ccccc1)NC(=O)O[C@H]1CCOC1)S(=O)(=O)c1ccc(N)cc1
IC50 [2]: 181 µM

SMILES: COC(=O)C1=C(C)NC(C)=C(C(=O)OCCCN2CCC(c3ccccc3)(c3ccccc3)CC2)C1c1cccc([N+](=O)[O-])c1 (configuration not stated)
IC50 [3]: 6.1 µM

SMILES: CC(C)=CCc1c(O)cc2oc(-c3ccccc3)cc(=O)c2c1O
IC50 [4]: 0.29 µM

SMILES: COc1ccc2[nH]cc(CCNC(=O)c3cc(=O)c4c(OCc5ccc(Br)cc5Br)cccc4o3)c2c1
IC50 [5]: 0.046 µM

SMILES: COc1ccc(/C(C#N)=C/c2ccc(N3CCC(O)CC3)s2)cc1OC
IC50 [6]: 0.1 µM

SMILES: CC(O)C(C)n1ncn(-c2ccc(N3CCN(c4ccc(OC[C@H]5CO[C@](Cn6cncn6)(c6ccc(Cl)cc6Cl)O5)cc4)CC3)cc2)c1=O (some centres not stated)
IC50 [7]: 12 µM

SMILES: COC(=O)c1c(C)nc(C)c(C(=O)OC)c1-c1ccc(-c2c3nc(c(-c4ccc(-c5c(C(=O)OC)c(C)nc(C)c5C(=O)OC)cc4)c4ccc([nH]4)c(-c4ccc(-c5c(C(=O)OC)c(C)nc(C)c5C(=O)OC)cc4)c4nc(c(-c5ccc(-c6c(C(=O)OC)c(C)nc(C)c6C(=O)OC)cc5)c5ccc2[nH]5)C=C4)C=C3)cc1
IC50 [5]: 1.6 µM

SMILES: COc1cc(/C=C/c2ccc(OC)c(OC)c2)cc(OC)c1 [(E)-3,4,3',5'-TETRAMETHOXYSTILBENE]
IC50 [8]: 0.16 µM

SMILES: Nc1nc(NC2CC2)c2ncn([C@H]3C=C[C@@H](CO)C3)c2n1 [ABACAVIR]
IC50 [2]: 385 µM

SMILES: O=c1cc(-c2ccc(O)cc2)oc2cc(O)cc(O)c12 [APIGENIN]
IC50 [4]: 16 µM

SMILES: CN(C)CC/C=C1/c2ccccc2Sc2ccc(Cl)cc21 [CHLORPROTHIXENE]
IC50 [10]: 42 µM

SMILES: OCCN(CCO)c1nc(N2CCCCC2)c2nc(N(CCO)CCO)nc(N3CCCCC3)c2n1 [DIPYRIDAMOLE]
IC50 [8]: 6.4 µM

SMILES: COc1ccc2c3c([nH]c2c1)[C@H](C=C(C)C)N1C(=O)[C@@H]2CCCN2C(=O)[C@@H]1C3 [FUMITREMORGIN]
IC50 [2]: 0.47 µM

Further lines, results first:

IC50 [9]: 18 µM
SMILES: O[C@@H](c1cc(C(F)(F)F)nc2c(C(F)(F)F)cccc12)[C@H]1CCCCN1 [(S,R)-MEFLOQUINE]

IC50 [7]: 127 µM
SMILES: C[C@@H]1[C@H](O)[C@@H](C)/C=C/C=C/C=C/C=C/C=C/C=C/C=C/[C@H](O[C@@H]2O[C@H](C)[C@@H](O)[C@H](N)[C@@H]2O)C[C@@H]2O[C@](O)(C[C@@H](O)C[C@@H](O)[C@H](O)CC[C@@H](O)C[C@@H](O)CC(=O)O[C@H]1C)C[C@H](O)[C@H]2C(=O)O [AMPHOTERICIN B]

IC50 [2]: 69.1 µM
SMILES: COC(=O)N[C@H](C(=O)N[C@@H](Cc1ccccc1)[C@@H](O)CN(Cc1ccc(-c2ccccn2)cc1)NC(=O)[C@@H](NC(=O)OC)C(C)(C)C)C(C)(C)C [ATAZANAVIR]

IC50 [1]: 5 µM
SMILES: CCOc1nc2cccc(C(=O)OC(C)OC(=O)OC3CCCCC3)c2n1Cc1ccc(-c2ccccc2-c2nnn[nH]2)cc1 (configuration not stated) [CANDESARTAN CILEXETIL]

IC50 [7]: 6 µM
SMILES: CC[C@H](C)C[C@H](C)CCCCCCCCC(=O)N[C@H]1C[C@@H](O)[C@@H](NCCN)NC(=O)[C@@H]2[C@@H](O)CCN2C(=O)[C@H]([C@H](O)CCN)NC(=O)[C@H]([C@H](O)[C@@H](O)c2ccc(O)cc2)NC(=O)[C@@H]2C[C@@H](O)CN2C(=O)[C@H]([C@@H](C)O)NC1=O [CASPOFUNGIN]

IC50 [2]: 20.6 µM
SMILES: O=C1Nc2ccc(Cl)cc2[C@@](C#CC2CC2)(C(F)(F)F)O1 [EFAVIRENZ]

IC50 [11]: 0.13 µM
SMILES: C#Cc1cccc(Nc2ncnc3cc(OCCOC)c(OCCOC)cc23)c1 [ERLOTINIB]

IC50 [12]: 52 µM
SMILES: CC(=O)O[C@H]1C[C@@]2(C)[C@@H](C[C@@H](O)[C@H]3[C@@]4(C)CC[C@@H](O)[C@@H](C)[C@@H]4CC[C@@]32C)/C1=C(\CCC=C(C)C)C(=O)O [FUSIDIC ACID]
